Measurements reported in publication PMC9697031, “Identification of Novel Diarylpyrimidines as Potent HIV-1 Non-Nucleoside Reverse Transcriptase Inhibitors by Exploring the Primer Grip Region” (Pharmaceuticals, 2022).
Where two headings read alike, the source gives them in different places.

Columns and labels:
WT HIV-1 strain (IIIB) [1] = assay: Anti-HIV-1 (IIIB, wild-type) activity in MT-4 cells, MTT method; format: cell-based; conditions: for SI (IIIB): selectivity index, CC50/EC50 (IIIB)
Procedure: (§1) Stock solutions (10 × final concentration) of test compounds were added in 25 μL volumes to two series of triplicate wells to allow simultaneous evaluation of their effects on mock- and HIV-infected cells at the beginning of each experiment.

in vitro = conditions: human
Procedure: as §1

[2] = tested on: HIV-1 L100I mutant strain; assay: Anti-HIV-1 mutant strain L100I in MT-4 cells, MTT method; format: cell-based; conditions: Human immunodeficiency virus 1, MT4, read-out: EC50 L100I
Procedure: (§2) Evaluation of the anti-HIV activity and cytotoxicity of the target compounds was performed by utilizing the MTT method in MT-4 cells described previously [37]. Stock solutions (10 × final concentration) of test compounds were added in 25 μL volumes to two series of triplicate wells to allow simultaneous evaluation of their effects on mock- and HIV-infected cells at the beginning of each experiment. Serial five-fold dilutions of test compounds were prepared directly in flat-bottomed 96-well microtiter trays by adding 100 μL medium to the 25 μL stock solution and transferring 25 μL of this solution to another well that contained 100 μL medium using a Biomek 3000 robot (Beckman Instruments, Fullerton, CA). Each sample includes untreated control HIV- and mock-infected cell samples. WT HIV-1 strain (IIIB), HIV-1 drug-resistant strains including L100I, K103N, Y181C, Y188L, E138K, K103N/Y181C, F227L/V106A or HIV-2 strain (ROD) stock (50 μL) at 100–300 CCID50 (50% cell culture infectious dose) or culture medium was added to either the infected or mock-infected wells of the microtiter tray. Mock-infected cells were used to evaluate the effect of test compounds on uninfected cells to evaluate their cytotoxicity. Exponentially growing MT-4 cells were centrifuged for 5 min at 1000 rpm, and the supernatant was discarded. […] After infection five days, the viability of mock- and HIV-infected cells was examined spectrophotometrically by the MTT assay.

[3] = tested on: HIV-1 K103N mutant strain; assay: microbe, parasite or virus in culture; format: cell-based; conditions: for EC50: Human immunodeficiency virus 1, MT4, read-out: EC50 K103N; for Resistance Folds K103N: RF, EC50 (K103N)/EC50 (WT)
Procedure: as §1

[4] = tested on: HIV-1 Y181C mutant strain; assay: Anti-HIV-1 mutant strain Y181C in MT-4 cells, MTT method; format: cell-based; conditions: Human immunodeficiency virus 1, MT4, read-out: EC50 Y181C
Procedure: as §2

[5] = tested on: HIV-1 Y188L mutant strain; assay: Anti-HIV-1 mutant strain Y188L in MT-4 cells, MTT method; format: cell-based; conditions: Human immunodeficiency virus 1, MT4, read-out: EC50 Y188L
Procedure: as §2

[6] = tested on: HIV-1 E138K mutant strain; assay: Anti-HIV-1 mutant strain E138K in MT-4 cells, MTT method; format: cell-based; conditions: Human immunodeficiency virus 1, MT4, read-out: EC50 E138K
Procedure: as §2

[7] = tested on: HIV-1 F227L + V106A mutant strain; assay: Anti-HIV-1 double mutant F227L + V106A in MT-4 cells, MTT method; format: cell-based; conditions: Human immunodeficiency virus 1, MT4, read-out: EC50 F227L + V106A
Procedure: as §2

[8] = tested on: HIV-1 RES056 (K103N/Y181C) mutant strain; assay: Anti-HIV-1 double mutant RES056 in MT-4 cells, MTT method; format: cell-based; conditions: Human immunodeficiency virus 1, MT4, read-out: EC50 RES056
Procedure: as §2

HIV-1 WT RT [9] = molecular target: T1, HIV-1 WT RT (Human immunodeficiency virus type 1 group M subtype B, UniProt P04585); set-up: method as in PMID 35061384; conditions: incorporation of biotin-dUTP; used for comparison ref 5; cited from earlier work
T1 construct: The RT is a heterodimer consisting of two subunits, p66 (560 residues) and p51 (440 residues); purchased Roche

WT HIV-1 strain (IIIB) [10] = tested on: WT HIV-1 strain (IIIB); set-up: method as in PMID 35061384; conditions: MT-4 cells, WT HIV-1 IIIB; used for comparison ref 5; cited from earlier work
HIV-2 strain (ROD) = assay: Anti-HIV-2 (ROD) activity in MT-4 cells, MTT method; format: cell-based; conditions: Human immunodeficiency virus 2, MT4, read-out: EC50 ROD
Procedure: as §1

HIV-1 WT RT [11] = molecular target: T1, HIV-1 WT RT; assay: HIV-1 RT inhibition assay (Roche kit, ELISA); format: biochemical
Procedure: An HIV-1 reverse transcriptase (RT) assay kit produced by Roche was used for the RT inhibition assay. All the reagents for performing the RT reaction came from the kit, and the ELSIA procedures for RT inhibition assay were conducted following the description in the kit protocol [38]. […] Then used, a washing buffer was used to remove the unbound dNTPs, and an anti-DIG-POD working solution was added. […] The unbound anti-DIG-PODs were removed, and the peroxidesubstrate (ABST) solution was added to the MTPs. A colored reaction proceeds during the cleavage of the substrate catalyzed by POD. […] The percentage inhibitory activity of RT inhibitors was calculated by the formula given below: % Inhibition = [O.D. value with RT but without inhibitors − O.D. value with RT and inhibitors]/[O.D. value with RT and inhibitors − O.D. value without RT and inhibitors].

[12] = Human immunodeficiency virus 1, IIIB, MT4, read-out: EC50 IIIB, MT-4 cells, WT HIV-1 IIIB, MTT

| Structure (SMILES) | EC50 (WT HIV-1 strain (IIIB) [1]; [12]) [µM] | EC50 (WT HIV-1 strain (IIIB) [1]; read-out: EC50 IIIB, MT-4 cells, WT HIV-1 IIIB, MTT) [µM] | SI (IIIB) (WT HIV-1 strain (IIIB) [1]) | CC50 at 5 days (in vitro) [µM] | EC50 [2] [µM] | EC50 [3] [µM] | EC50 [4] [µM] | EC50 [5] [µM] | EC50 [6] [µM] | EC50 [7] [µM] | EC50 [8] [µM] | IC50 (HIV-1 WT RT [9]) [µM] | EC50 (WT HIV-1 strain (IIIB) [10]) [µM] | EC50 (HIV-2 strain (ROD)) [µM] | Resistance Folds K103N [3] | IC50 (HIV-1 WT RT [11]) [µM] | melting point [°C] |
| --- | --- | --- | --- | --- | --- | --- | --- | --- | --- | --- | --- | --- | --- | --- | --- | --- | --- |
| Cc1cc(C#N)cc(C)c1Oc1nc(Nc2ccc(C#N)cc2)nc(N)c1Br [ETR, etravirine, reference compound] | 0.003 | 0.0029 ± 0.0004 | >1578.9 | > 4.59 | 0.0059 ± 0.001 | 0.003 ± 0.0003 | 0.0111 ± 0.0013 | 0.0181 ± 0.0032 | 0.0063 ± 0.0012 | 0.0204 ± 0.0078 | 0.0295 ± 0.0048 | 0.011 |  |  |  |  |  |
| Cc1cc(/C=C/C#N)cc(C)c1Nc1ccnc(Nc2ccc(C#N)cc2)n1 [RPV, rilpivirine] |  |  |  |  |  |  |  |  |  |  |  |  | 0.001 ± 0.00027 |  |  |  |  |
| Cc1cc(COc2ccc(CO)cc2)cc(C)c1Oc1ccnc(Nc2ccc(C#N)cc2)n1 [TF8, 4-((4-(4-((4-(hydroxymethyl)phenoxy)methyl)-2,6-dimethylphenoxy)pyrimidin-2-yl)amino)benzonitrile] | 0.0428 ± 0.0056 |  | 68.1 | 2.92 ± 0.272 | 0.329 ± 0.0567 | 0.11 ± 0.0046 | 0.667 ± 0.078 | 0.886 ± 0.0201 | 0.147 ± 0.0046 | 0.853 ± 0.0814 | 1.419 ± 0.0097 |  |  | > 2.92 | 2.56 | 0.041 ± 0.001 | 209 to 212 |
| Cc1cc(COc2cccc(CO)c2)cc(C)c1Oc1ccnc(Nc2ccc(C#N)cc2)n1 [TF9, 4-((4-(4-((3-(hydroxymethyl)phenoxy)methyl)-2,6-dimethylphenoxy)pyrimidin-2-yl)amino)benzonitrile] | 0.0305 ± 0.004 |  | 113.3 | 3.46 ± 0.375 | 0.308 ± 0.0463 | 0.12 ± 0.0182 | 0.499 ± 0.0446 | 1.1 ± 0.0957 | 0.147 ± 0.012 | 1 ± 0.0296 | 1.59 ± 0.0875 |  |  | > 3.46 | 3.87 | 0.053 | 147 to 150 |
| Cc1cc(COc2ccccc2CO)cc(C)c1Oc1ccnc(Nc2ccc(C#N)cc2)n1 [TF10, 4-((4-(4-((2-(hydroxymethyl)phenoxy)methyl)-2,6-dimethylphenoxy)pyrimidin-2-yl)amino)benzonitrile] | 0.0322 ± 0.0033 |  | 149.1 | 4.8 ± 0.342 | 0.635 ± 0.0282 | 0.158 ± 0.0186 | 0.766 ± 0.0225 | > 4.8 | 0.179 ± 0.0269 | 1.49 ± 0.0339 | > 4.8 |  |  | > 4.8 | 4.94 | 0.055 | 179 to 182 |
| Cc1cc(COc2cccnc2)cc(C)c1Oc1ccnc(Nc2ccc(C#N)cc2)n1 [TF11, 4-((4-(2,6-Dimethyl-4-((pyridin-3-yloxy)methyl)phenoxy)pyrimidin-2-yl)amino) benzonitrile] | 0.199 ± 0.013 |  | 74.5 | 14.8 | 9.574 ± 0.0222 | 0.444 ± 0.0686 | > 14.8 | > 14.8 | ≥ 3.02 | > 14.8 | > 14.8 |  |  | > 14.8 | 2.23 | 0.483 ± 0.03 | 237 to 240 |
| Cc1cc(COc2cccnc2C#N)cc(C)c1Oc1ccnc(Nc2ccc(C#N)cc2)n1 [TF12, 3-((4-((2-((4-cyanophenyl)amino)pyrimidin-4-yl)oxy)-3,5-dimethylbenzyl)oxy) picolinonitrile] | 0.0078 ± 0.0008 |  | 316.9 | 2.46 ± 0.198 | 0.246 ± 0.0546 | 0.0347 ± 0.0088 | 0.385 ± 0.0755 | ≥ 1.56 | 0.0462 ± 0.0071 | 0.742 ± 0.145 | > 2.46 |  |  | > 2.46 | 4.49 | 0.038 ± 0.004 | 245 to 248 |
| Cc1cc(COc2cncc(C#N)c2)cc(C)c1Oc1ccnc(Nc2ccc(C#N)cc2)n1 [TF13, 5-((4-((2-((4-cyanophenyl)amino)pyrimidin-4-yl)oxy)-3,5-dimethylbenzyl)oxy) nicotinonitrile] | 0.0194 ± 0.0034 |  | 246.4 | 4.77 ± 1.56 | 0.125 ± 0.0059 | 0.028 ± 0.0025 | 0.265 ± 0.0246 | 1.05 ± 0.0668 | 0.0577 ± 0.0116 | 1.65 ± 0.0199 | 1.18 ± 0.0682 |  |  | > 4.77 | 1.47 | 0.059 ± 0.001 | 195 to 198 |
| Cc1cc(COc2ccc(F)nc2)cc(C)c1Oc1ccnc(Nc2ccc(C#N)cc2)n1 [TF14, 4-((4-(4-(((6-fluoropyridin-3-yl)oxy)methyl)-2,6-dimethylphenoxy)pyrimidin-2-yl)amino)benzonitrile] | 0.0236 ± 0.0038 |  | 1034.6 | 24.4 | 0.185 ± 0.0116 | 0.0367 ± 0.0037 | 0.286 ± 0.0521 | 0.774 ± 0.0392 | 0.0674 ± 0.0081 | 0.999 ± 0.126 | 1.19 ± 0.182 |  |  | > 24.4 | 1.54 | 0.041 ± 0.003 | 185 to 188 |
| Cc1cc(COc2ccc(NC(=O)OC(C)(C)C)cc2)cc(C)c1Oc1ccnc(Nc2ccc(C#N)cc2)n1 [TF16, (4-((4-((2-((4-cyanophenyl)amino)pyrimidin-4-yl)oxy)-3,5-dimethylbenzyl)oxy)phenyl)carbamic acid tert-butyl ester] | 0.0453 ± 0.0141 |  | 136.7 | 6.2 ± 0.22 | 0.715 ± 0.183 | 0.132 ± 0.0284 | 1.27 ± 0.154 | > 6.2 | 0.245 ± 0.0304 | ≥ 1.62 | > 6.2 |  |  | > 6.2 | 2.93 | 0.16 ± 0.001 | 184 to 187 |
